The record followed here is patent US20230137927A1, “INTERFERON TAU AS ANTIVIRAL THERAPY” (priority 2020, published 2023).

One series deals with hCoV-229E. Kind of series: hCoV-229E CPE assay. The series is classed as cell-based. The conditions noted are these: Human coronavirus 229E.
Series [1] has as its system SARS CoV-2 (USA_WA1/2020). In words: SARS-CoV-2 CPE assay in Vero E6 cells. It is filed as cell-based. The conditions noted are these: Severe acute respiratory syndrome coronavirus 2, Vero C1008, reference compounds in the same assay.
The subject of the next series is hCoV-OC43. In words: HCoV OC43 CPE assay in Huh7 cells. The series is classed as cell-based.
The subject of a further series is Huh7 cells. Kind of series: Cytotoxicity in parallel with OC43 CPE assay, without virus. The conditions noted are these: Huh7 cells; no virus; reference compounds.
Test in series [2]: as above
To be noted: human.

The next series deals with YFV 17D. Kind of series: microbe, parasite or virus in culture. It is filed as cell-based. To be noted: Yellow fever virus.
The subject of series [3] is DENV type 2 Rluc-NGC strain. Kind of series: microbe, parasite or virus in culture. The conditions noted are these: Dengue virus, Vero. The series is classed as cell-based.
The mark [4] stands for this setting: Betacoronavirus 1, OC43, Huh-7, read-out: Average Inhibition (%).

Molecules are shown by their SMILES. Where two headings read alike, the source gives them in different places.

As for `CCN(CC)CCCC(C)Nc1ccnc2cc(Cl)ccc12` (stereo not drawn) [Chloroquine], the IC50 in the series on hCoV-229E (MRCS cells, data not shown, read-out: IC50) is 2200 nM.
In series [1], `CCN(CCO)CCCC(C)Nc1ccnc2cc(Cl)ccc12` (stereo not drawn) [Hydroxychloroquine] gave an IC50 of 1910 nM.
In turn, `CCC(CC)COC(=O)[C@H](C)N[P@](=O)(OC[C@H]1O[C@@](C#N)(c2ccc3c(N)ncnn23)[C@H](O)[C@@H]1O)Oc1ccccc1` [Remdesivir] had a concentration giving a half-maximal response (EC50) with hCoV-OC43 (Betacoronavirus 1, OC43, Huh-7) of 41.4 nM. In the series with hCoV-OC43 (setting [4]), the inhibition at 0.000457 µM is -4.12%, the inhibition at 0.001372 µM is -0.1%, the inhibition at 0.004115 µM came to 1.54% and the inhibition at 0.01235 µM came to 8.25%. Further, in the series with hCoV-OC43 (setting [4]), the inhibition at 0.03704 µM was determined as 30.4%, the inhibition at 0.11111 µM was 83.4%, the inhibition at 0.33333 µM came to 79.5% and the inhibition at 1 µM was determined as 80.3%. In the series with Huh7 cells, this compound showed a CC50 of 17.2 µM. Besides, in series [2], the viability at 7 days, 0.046 µM was found to be 100%; the viability at 7 days, 0.137 µM is 102%; the viability at 7 days, 0.412 µM amounted to 104%; the viability at 7 days, 1.235 µM is 102%. Moreover, in series [2], the viability at 7 days, 3.704 µM is 86.9%; the viability at 7 days, 11.11 µM was determined as 56.8%; the viability at 7 days, 33.33 µM stood at 36.9%; the viability at 7 days, 100 µM was 21.8%. Further, it took 23.1 nM to reach half-maximal inhibition with hCoV-229E (72 h) (IC50). This compound came in with an IC50 in series [1] of 3900 nM.
`NC(=O)c1ncn([C@@H]2O[C@H](CO)[C@@H](O)[C@H]2O)n1` [Ribavirin]: in the series with YFV 17D (read-out: EC50 for YFV, FIG. 4B as described in Examples 3 & 4), the EC50 is 225 µM. For the same compound, the EC50 in the series on YFV 17D (read-out: EC50 for YFV, FIG. 4B legend) was determined as 136 µM. Besides, the CC50 in the series “in vitro” is more than 699 µM. For the same compound, in series [3], it took 32.2 µM to reach a half-maximal effect (EC50), the inhibition at 0.015 µM was determined as 14.9%, the inhibition at 0.046 µM stood at 14.9% and the inhibition at 0.137 µM stood at 10.8%. Besides, in series [3], the inhibition at 0.412 µM is 13.5%, the inhibition at 1.235 µM is 31.1%, the inhibition at 3.704 µM amounted to 20.3% and the inhibition at 11.111 µM stood at 24.3%. Besides, in series [3], the inhibition at 33.333 µM is 60.8%, the inhibition at 100 µM is 98.7% and the inhibition at 300 µM stood at 100%.
